The source made the active and inactive calls.
Columns and labels:
[1] = biological target: T1, Hexokinase HKDC1 (Homo sapiens, UniProt Q2TB90); test: inhibition of HKDC1 glucose phosphorylation – biochemical, W721R variant, dose response (AID 504729); format: functional
T1 sequence (Q2TB90 whole entry): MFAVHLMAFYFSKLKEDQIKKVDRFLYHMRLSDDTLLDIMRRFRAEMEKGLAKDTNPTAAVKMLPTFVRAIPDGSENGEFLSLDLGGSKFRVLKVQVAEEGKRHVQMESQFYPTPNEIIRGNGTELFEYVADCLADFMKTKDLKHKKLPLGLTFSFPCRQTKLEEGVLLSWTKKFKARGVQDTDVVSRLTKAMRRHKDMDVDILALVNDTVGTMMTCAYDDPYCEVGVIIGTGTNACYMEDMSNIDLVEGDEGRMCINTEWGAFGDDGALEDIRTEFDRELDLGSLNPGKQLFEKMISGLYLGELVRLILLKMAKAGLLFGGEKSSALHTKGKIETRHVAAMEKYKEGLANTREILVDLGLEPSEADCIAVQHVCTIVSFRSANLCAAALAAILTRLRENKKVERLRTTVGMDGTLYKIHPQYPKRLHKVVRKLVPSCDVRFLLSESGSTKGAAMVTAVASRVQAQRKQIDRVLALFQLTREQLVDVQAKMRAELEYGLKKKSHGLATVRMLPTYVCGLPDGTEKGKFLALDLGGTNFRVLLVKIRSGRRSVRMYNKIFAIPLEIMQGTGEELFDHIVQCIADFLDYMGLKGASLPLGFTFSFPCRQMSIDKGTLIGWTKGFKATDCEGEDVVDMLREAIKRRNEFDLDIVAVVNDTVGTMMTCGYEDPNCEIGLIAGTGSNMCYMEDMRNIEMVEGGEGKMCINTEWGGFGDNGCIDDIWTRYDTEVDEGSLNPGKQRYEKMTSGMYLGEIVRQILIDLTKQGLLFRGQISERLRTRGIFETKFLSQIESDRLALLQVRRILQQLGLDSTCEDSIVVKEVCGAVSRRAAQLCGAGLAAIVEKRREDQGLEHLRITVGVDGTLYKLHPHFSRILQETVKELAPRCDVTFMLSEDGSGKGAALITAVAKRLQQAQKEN

[2] = A cytotoxicity screen of small molecule inhibitors of the PhoP region in Salmonella typhi identified in the primary screen. [Related pubchem assays: 1850, 1864, 1985 ]; format: functional
[3] = biological target: DNA dC->dU-editing enzyme APOBEC-3G (Homo sapiens, UniProt Q9HC16); test: Dose Response confirmation of small molecule APOBEC3G DNA Deaminase Inhibitors via a fluorescence-based single-stranded DNA deaminase assay. [Related pubchem assays (depositor defined):AID493012, AID493028]; format: functional
Chain of DNA dC->dU-editing enzyme APOBEC-3G (Q9HC16 whole entry): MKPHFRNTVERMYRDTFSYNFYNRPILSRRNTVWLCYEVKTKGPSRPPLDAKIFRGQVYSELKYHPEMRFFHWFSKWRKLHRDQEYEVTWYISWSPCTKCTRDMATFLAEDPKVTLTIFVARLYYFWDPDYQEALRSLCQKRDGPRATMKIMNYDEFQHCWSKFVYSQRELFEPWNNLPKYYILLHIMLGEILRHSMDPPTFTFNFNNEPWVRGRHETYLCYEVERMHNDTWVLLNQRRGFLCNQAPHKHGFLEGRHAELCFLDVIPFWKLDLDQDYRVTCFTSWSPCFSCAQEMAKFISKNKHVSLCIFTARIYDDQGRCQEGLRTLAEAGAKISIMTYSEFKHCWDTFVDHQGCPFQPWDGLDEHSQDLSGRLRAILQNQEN

[4] = luciferase reporter signal suppression in cells – H4 neuroglioma cells, luminescence, dose response (AID 1990); format: functional, cell-based
[5] = biological target: T2, Aminopeptidase N (Plasmodium falciparum FcB1/Columbia, UniProt O96935); test: malaria alanyl aminopeptidase activity blockers – biochemical, fluorogenic H-Leu-NHMec substrate, 1536-well (AID 1445); design: species or system Plasmodium falciparum 3D7, 3D7
T2 sequence (O96935 whole entry): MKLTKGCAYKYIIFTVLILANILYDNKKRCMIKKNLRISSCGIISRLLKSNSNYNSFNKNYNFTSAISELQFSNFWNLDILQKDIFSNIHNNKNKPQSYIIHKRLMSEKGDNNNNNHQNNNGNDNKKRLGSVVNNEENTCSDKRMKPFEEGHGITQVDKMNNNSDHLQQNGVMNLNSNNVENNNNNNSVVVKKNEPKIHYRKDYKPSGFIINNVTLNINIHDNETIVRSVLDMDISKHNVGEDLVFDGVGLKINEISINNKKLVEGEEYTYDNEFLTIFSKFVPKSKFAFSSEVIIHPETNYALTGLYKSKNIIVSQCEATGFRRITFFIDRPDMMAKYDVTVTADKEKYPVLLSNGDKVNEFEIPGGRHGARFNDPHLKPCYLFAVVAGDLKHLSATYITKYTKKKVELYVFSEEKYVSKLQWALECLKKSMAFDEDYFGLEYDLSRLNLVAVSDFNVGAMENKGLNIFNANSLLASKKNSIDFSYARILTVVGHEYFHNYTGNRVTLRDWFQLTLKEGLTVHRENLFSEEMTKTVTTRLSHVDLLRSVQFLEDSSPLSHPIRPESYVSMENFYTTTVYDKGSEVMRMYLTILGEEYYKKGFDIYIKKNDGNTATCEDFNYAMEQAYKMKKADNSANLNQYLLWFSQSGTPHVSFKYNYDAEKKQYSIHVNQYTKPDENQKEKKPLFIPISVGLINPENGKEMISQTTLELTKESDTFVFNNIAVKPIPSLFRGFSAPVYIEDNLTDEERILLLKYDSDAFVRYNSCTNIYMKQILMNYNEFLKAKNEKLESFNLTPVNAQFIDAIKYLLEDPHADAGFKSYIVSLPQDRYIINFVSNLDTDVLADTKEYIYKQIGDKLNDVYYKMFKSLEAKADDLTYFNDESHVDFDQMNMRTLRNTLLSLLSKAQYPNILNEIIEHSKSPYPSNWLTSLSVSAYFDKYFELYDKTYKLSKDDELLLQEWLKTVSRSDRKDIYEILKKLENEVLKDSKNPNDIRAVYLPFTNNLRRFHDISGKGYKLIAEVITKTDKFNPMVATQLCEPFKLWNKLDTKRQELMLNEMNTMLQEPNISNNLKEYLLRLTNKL

[6] = Luminescence Cell-Based Dose Response HTS to Identify Inhibitors of 5'UTR Stem-Loop Driven Prion Protein mRNA Translation in H4 Neuroglioblastoma Cells. [Related pubchem assays: 1827 (Project Summary), 1813 (Primary HTS)]; format: functional
[7] = alpha-synuclein stem-loop luciferase translation blockers – H4 neuroglioma cells, luminescence, confirmation (AID 1988); format: functional, cell-based
[8] = biological target: T3, Replicative DNA helicase DnaB (Mycobacterium tuberculosis, UniProt P9WMR3); test: DnaB intein splicing inhibitors, dose response, biochemical, cell-free fluorescence (AID 449749); format: functional
T3 sequence (P9WMR3 whole entry): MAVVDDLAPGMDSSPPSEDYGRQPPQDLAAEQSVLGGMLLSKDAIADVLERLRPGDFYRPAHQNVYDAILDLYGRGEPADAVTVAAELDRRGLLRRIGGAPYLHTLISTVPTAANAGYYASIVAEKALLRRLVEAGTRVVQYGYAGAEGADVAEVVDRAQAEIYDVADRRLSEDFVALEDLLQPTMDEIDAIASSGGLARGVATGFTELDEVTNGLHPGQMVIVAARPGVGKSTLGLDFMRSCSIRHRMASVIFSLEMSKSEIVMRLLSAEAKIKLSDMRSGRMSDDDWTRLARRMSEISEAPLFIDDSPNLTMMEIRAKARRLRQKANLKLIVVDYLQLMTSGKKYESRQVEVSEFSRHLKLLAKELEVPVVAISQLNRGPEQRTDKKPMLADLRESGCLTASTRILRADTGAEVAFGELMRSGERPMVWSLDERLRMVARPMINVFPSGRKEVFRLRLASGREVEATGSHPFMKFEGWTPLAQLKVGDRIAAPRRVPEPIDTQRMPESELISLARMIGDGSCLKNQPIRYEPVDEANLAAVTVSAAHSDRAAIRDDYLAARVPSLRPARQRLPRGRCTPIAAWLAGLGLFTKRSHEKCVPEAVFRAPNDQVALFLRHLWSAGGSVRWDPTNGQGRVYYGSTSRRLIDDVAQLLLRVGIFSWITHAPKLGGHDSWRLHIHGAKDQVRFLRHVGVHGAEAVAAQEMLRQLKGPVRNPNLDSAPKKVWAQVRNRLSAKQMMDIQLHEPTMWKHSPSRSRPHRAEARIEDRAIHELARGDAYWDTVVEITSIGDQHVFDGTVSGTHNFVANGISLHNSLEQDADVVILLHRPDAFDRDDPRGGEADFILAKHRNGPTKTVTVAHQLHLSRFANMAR

[9] = biological target: T4, Protein RecA (Mycobacterium tuberculosis, UniProt P9WHJ3); test: Fluorescence Cell-Free Homogeneous Dose Retest to Identify Inhibitors of RecA-Intein Splicing Activity. [Related pubchem assays (depositor defined):AID2097, AID2223, AID489010, AID492950]; format: functional
T4 sequence (P9WHJ3 whole entry): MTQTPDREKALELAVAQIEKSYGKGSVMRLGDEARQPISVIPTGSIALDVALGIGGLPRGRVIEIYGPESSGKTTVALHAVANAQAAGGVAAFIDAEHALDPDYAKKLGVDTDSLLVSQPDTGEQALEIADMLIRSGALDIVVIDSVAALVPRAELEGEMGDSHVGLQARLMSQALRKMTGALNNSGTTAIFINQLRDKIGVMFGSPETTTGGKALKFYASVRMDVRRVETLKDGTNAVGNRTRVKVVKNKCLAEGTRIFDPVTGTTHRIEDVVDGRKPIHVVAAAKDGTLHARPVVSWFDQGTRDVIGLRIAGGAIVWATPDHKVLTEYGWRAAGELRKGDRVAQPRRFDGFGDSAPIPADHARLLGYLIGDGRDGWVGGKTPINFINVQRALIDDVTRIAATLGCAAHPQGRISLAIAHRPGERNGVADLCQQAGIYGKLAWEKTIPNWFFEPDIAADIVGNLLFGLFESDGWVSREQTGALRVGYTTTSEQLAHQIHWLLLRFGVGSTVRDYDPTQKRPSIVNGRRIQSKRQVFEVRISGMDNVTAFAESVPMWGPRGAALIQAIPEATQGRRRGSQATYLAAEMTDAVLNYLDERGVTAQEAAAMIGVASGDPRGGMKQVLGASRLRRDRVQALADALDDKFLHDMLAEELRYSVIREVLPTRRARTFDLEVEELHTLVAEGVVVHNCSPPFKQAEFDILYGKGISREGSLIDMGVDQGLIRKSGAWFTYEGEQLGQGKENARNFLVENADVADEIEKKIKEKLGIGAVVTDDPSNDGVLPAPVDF

[10] = biological target: Large T antigen (Simian virus 40, UniProt P03070); format: functional, Betapolyomavirus macacae;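 note: Confirmatory-stage PubChem screen for compounds that inhibit SV40 T antigen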
Chain of Large T antigen (P03070 whole entry): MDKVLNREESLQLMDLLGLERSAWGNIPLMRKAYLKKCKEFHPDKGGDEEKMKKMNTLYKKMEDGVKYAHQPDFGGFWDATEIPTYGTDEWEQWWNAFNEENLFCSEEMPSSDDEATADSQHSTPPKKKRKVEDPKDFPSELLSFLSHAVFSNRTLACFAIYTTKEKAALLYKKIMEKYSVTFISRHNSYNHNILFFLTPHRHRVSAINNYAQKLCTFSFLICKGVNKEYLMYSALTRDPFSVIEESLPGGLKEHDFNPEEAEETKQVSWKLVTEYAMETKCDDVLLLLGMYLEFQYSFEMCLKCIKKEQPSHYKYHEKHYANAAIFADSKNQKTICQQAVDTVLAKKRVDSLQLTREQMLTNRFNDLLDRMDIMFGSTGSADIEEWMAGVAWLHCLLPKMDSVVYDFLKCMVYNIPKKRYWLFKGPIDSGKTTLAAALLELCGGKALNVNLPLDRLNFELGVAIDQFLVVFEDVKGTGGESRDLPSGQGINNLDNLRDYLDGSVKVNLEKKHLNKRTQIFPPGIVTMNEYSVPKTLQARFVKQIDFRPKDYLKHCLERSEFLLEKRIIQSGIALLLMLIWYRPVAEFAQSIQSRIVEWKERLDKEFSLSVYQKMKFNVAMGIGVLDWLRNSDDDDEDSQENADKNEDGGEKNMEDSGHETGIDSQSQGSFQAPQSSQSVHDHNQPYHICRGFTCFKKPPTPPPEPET

[11] = biological target: T5, Mucolipin-3 (Homo sapiens, UniProt Q8TDD5); test: Dose response cell-based high-throughput screening assay for agonists of the transient receptor potential channel ML3 (TRPML3). [Related pubchem assays: 1526, 1424, 1448 ]; format: functional
T5 sequence (Q8TDD5 whole entry): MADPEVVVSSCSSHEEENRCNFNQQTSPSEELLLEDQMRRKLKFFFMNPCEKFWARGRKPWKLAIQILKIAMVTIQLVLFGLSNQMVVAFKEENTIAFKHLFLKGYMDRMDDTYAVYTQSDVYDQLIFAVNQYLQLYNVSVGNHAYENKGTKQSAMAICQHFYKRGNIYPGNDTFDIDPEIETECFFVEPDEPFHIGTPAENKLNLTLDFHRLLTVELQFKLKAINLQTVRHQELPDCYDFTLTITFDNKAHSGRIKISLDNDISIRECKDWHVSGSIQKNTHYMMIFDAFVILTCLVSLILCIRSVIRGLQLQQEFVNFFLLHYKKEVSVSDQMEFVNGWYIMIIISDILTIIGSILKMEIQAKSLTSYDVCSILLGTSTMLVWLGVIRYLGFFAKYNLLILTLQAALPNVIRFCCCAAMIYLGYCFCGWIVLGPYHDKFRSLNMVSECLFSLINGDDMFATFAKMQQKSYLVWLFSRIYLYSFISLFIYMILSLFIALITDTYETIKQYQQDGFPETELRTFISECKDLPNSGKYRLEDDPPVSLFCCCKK

[12] = biological target: T6, Calpain-2 catalytic subunit (Sus scrofa, UniProt P43367); test: m-calpain protease blockers, concentration series – biochemical, fluorogenic peptide substrate, dose response (AID 1420); format: functional
T6 sequence (P43367 whole entry): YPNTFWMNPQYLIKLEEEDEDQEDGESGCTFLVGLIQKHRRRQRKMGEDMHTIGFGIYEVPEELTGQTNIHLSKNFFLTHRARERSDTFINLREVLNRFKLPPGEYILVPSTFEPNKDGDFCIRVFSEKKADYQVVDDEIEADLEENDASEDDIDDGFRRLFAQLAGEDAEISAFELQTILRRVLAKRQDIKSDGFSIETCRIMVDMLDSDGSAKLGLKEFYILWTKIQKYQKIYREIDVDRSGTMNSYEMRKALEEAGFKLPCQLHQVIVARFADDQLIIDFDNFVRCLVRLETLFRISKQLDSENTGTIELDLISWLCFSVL

[13] = biological target: Ion channel NompC (Danio rerio, UniProt Q7T1G6); test: Fluorescence counterscreen assay for TRPML3 agonists: dose response cell-based high-throughput screening assay to identify agonists of the transient receptor potential channel N1 (TRPN1). [Related pubchem assays: 1526, 1424, 1448 ]; format: functional
Chain of Ion channel NompC (Q7T1G6 whole entry): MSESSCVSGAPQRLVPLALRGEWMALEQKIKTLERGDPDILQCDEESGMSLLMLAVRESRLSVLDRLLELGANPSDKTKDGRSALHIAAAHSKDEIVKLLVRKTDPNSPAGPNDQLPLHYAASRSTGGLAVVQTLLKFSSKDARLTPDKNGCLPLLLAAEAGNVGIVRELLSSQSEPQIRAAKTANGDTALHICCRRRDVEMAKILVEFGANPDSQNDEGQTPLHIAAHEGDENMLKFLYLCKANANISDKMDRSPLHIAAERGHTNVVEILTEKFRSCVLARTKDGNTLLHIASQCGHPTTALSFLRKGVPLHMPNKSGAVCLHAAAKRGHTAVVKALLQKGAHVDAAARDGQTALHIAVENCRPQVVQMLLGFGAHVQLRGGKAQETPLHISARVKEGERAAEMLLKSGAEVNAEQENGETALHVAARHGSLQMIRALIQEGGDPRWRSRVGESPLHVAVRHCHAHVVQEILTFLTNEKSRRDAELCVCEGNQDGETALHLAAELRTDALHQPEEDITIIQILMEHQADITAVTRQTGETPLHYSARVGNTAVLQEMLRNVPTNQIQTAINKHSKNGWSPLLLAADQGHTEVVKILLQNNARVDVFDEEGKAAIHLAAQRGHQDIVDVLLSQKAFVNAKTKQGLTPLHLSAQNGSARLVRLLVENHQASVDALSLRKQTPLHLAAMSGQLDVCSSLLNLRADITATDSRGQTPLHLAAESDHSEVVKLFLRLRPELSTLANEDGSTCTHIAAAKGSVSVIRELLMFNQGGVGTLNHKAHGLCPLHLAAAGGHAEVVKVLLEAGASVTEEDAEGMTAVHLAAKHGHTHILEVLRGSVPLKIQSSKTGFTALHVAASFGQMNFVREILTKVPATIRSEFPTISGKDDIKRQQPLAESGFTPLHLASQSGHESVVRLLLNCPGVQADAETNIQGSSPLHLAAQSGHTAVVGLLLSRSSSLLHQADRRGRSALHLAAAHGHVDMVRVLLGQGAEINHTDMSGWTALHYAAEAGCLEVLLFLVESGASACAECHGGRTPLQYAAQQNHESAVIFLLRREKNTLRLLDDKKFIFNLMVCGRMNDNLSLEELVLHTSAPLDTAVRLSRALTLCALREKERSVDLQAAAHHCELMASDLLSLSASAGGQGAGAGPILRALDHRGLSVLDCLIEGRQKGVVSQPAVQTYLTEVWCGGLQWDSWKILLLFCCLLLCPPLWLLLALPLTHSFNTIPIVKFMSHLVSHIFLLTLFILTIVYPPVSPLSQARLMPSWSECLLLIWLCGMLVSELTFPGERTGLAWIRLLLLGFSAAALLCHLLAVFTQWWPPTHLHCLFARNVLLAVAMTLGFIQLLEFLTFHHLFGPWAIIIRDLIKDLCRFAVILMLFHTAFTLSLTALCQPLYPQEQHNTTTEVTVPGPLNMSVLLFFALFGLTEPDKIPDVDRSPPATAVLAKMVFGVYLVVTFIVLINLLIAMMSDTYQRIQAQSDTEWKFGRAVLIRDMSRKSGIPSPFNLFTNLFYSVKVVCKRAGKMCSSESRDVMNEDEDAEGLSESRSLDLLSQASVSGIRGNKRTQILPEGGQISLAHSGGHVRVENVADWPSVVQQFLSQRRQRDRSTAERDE

[14] = biological target: Cytochrome P450 2D6 (Homo sapiens, UniProt P10635); test: qHTS Assay for Inhibitors and Substrates of Cytochrome P450 2D6. [Related pubchem assays: 410 ]; format: ADME; conditions: read-out: Potency
Chain of Cytochrome P450 2D6 (P10635 whole entry): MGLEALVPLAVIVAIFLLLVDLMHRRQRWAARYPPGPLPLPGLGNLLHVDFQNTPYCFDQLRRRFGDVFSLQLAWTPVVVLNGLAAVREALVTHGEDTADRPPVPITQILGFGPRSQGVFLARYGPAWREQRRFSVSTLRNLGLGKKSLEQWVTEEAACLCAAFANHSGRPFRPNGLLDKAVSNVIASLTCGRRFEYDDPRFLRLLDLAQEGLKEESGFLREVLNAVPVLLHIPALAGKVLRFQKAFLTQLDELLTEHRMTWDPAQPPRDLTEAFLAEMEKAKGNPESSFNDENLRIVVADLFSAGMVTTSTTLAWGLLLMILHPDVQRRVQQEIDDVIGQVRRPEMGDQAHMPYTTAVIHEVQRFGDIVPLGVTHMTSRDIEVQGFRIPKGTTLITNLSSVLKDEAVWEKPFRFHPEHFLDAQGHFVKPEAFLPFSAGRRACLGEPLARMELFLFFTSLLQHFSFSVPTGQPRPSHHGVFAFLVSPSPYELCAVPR

[15] = biological target: Cytochrome P450 3A4 (Homo sapiens, UniProt P08684); conditions: Potency;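 note: confirmatory qHTS run detecting inhibitors and substrates of CYP3A4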
Chain of Cytochrome P450 3A4 (P08684 whole entry): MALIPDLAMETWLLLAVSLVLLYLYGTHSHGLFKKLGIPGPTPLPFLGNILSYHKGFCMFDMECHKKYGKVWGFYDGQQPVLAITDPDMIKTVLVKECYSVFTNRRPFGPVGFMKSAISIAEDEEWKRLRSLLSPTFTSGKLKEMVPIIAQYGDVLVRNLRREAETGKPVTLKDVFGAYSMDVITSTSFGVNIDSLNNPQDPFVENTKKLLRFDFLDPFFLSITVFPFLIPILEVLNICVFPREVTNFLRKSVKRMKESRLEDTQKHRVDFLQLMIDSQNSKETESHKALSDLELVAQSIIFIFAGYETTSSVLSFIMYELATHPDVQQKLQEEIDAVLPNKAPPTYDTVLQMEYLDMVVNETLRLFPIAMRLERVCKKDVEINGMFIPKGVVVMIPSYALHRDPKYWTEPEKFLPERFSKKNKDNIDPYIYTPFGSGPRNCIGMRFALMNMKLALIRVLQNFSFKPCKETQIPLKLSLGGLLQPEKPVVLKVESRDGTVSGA

## COc1ncnc2c1oc1nc(C(C)C)c3c(c12)CC(C)(C)OC3
[1]
  IC50: 11.7 µM (active)

## O=C1c2n[nH]c(-c3ccccc3O)c2C(c2ccc(F)cc2)N1CC1CCCO1 (stereo not given)
[2]
  EC50: > 50 µM (active)

## COc1ccccc1C(=O)Nc1nnc(-c2ccc(Cl)cc2)o1
[2]
  EC50: > 50 µM (active)

## CCn1c(N)c(C(=O)NCC2CCCO2)sc1=S (stereo not given)
[3]
  IC50: 66.6 µM (active)

## Cc1cccc(OCCSc2nnc(-c3ccoc3C)n2C)c1
[2]
  EC50: > 50 µM (active)

## CCOc1cc(/C=C(/C#N)C(=O)Nc2ccc(O)cc2)cc(Br)c1O
[4]
  EC50: 9.71 µM (inconclusive)
[5]
  IC50: 78.7 µM (active)
[6]
  EC50: 9.51 µM (active)
[7]
  EC50: 7.65 µM (active)
[8]
  AC50: > 380 µM (inactive)
[9]
  EC50: 3.28 µM (active)

## COc1cc(/C=C2\SC(=S)N(C(C(=O)O)c3ccccc3)C2=O)ccc1O (stereo not given)
[5]
  IC50: 38.1 µM (active)
[10]
  IC50: 11.6 µM (active)

## COc1ccc(OC)c(C(c2c(O)oc3ccccc3c2=O)c2c(C)n(C)n(-c3ccccc3)c2=O)c1 (stereo not given)
[5]
  IC50: 71 µM (active)

## COc1ccc2c(c1)C(C)CC(C)(C)N2C(=O)CSc1nc2ccccc2s1 (stereo not given)
[11]
  EC50: 2.63 µM (active)
[12]
  IC50: 3.08 µM (not active)
[13]
  EC50: > 29.9 µM (not active)

## OCC1OC(c2ccc3c(c2)OCO3)C=CC1Oc1ccc(C2CCCC2)cc1 (stereo not given)
[14]
  AC50: 3.16 µM (inconclusive)
[15]
  AC50: 2 µM (inconclusive)

## CC(C)c1nc2oc3c(O)ncnc3c2c2c1COC(C)(C)C2
[1]
  IC50: 8.22 µM (active)

Reference: ChEMBL document CHEMBL1201862, “PubChem BioAssay data set” (2004)
